Where “and” joins values, the source holds several entries; their conditions need not be identical. Identical values can stand only once.
Key:
hypersensitive teeth = assay: Randomized controlled study of dentine hypersensitivity: visual analogue scale (VAS) score with hot applicator and ice cube, before and after first mouthwash application; format: in vivo, patients; parameters: key to Before Ice / Before Hot: VAS score, 0 = no pain to 10 = severe pain (10 cm line); conditions: for Hot After 1 use Mean / Ice After 1 use Mean / Before Hot Mean / Before Ice Mean / Hot After 1 use / Ice After 1 use: VAS 0-10; for Hot After 1 use Mean / Ice After 1 use Mean / Before Hot Mean / Before Ice Mean: group mean of 6 subjects; for Hot After 1 use Mean / Ice After 1 use Mean: after first application of mouthwash; for Hot After 1 use Mean / Before Hot Mean / Hot After 1 use / Before Hot / Modifications in HS after the product application, Hot After 1 use, %: applicator heated to 90C; for Ice After 1 use Mean / Before Ice Mean / Ice After 1 use / Before Ice / Modifications in HS after the product application, Ice After 1 use, %: ice cube; for Before Hot Mean / Before Ice Mean / Before Hot / Before Ice: baseline before mouthwash; for Hot After 1 use / Ice After 1 use / Before Hot / Before Ice: individual subjects 1-6; for Hot After 1 use / Ice After 1 use: after first application of mouthwash (potassium nitrate 5%, galangin 0,1%, adenosine 0,05%, oleic acid 0,1% or combination); for Before Hot / Before Ice: VAS 0 - no pain, 10 - severe pain; for Modifications in HS after the product application, Hot After 1 use, % / Modifications in HS after the product application, Ice After 1 use, %: decrease of mean VAS versus before, mouthwash, first application
Source text: Table 2. Schedule of enrollment, intervention and assessment of the study
• Age from 18 to 35 years old • Good overall health; • At least one DHS tooth with sensitivity over or equal to 4 (VAS). Withdrawal criteria • Active caries or defective restorations on the tested tooth; • Considerable loss of dentine, requiring remedial treatment or paradental surgery; • Presence of veneers; • Any professional desensitizing treatment during previous 6 months; • Use of desensitizing toothpaste during previous 3 months. • Use of anti-inflammatory medicine or painkillers during enrollment; • Currently pregnant of breast-feeding.
The subjects were randomized into 6 treatment groups, two control groups of which were negative and positive controls (Fig. 3).
For random distribution of subjects, randomization was made as a draw with the website www.randomizer.org. An average value of initial points according to DHS degree was determined for each subject, and the subjects were randomized into treatment groups providing the equivalent initial DHS points for various treatment modes. All the hypersensitive teeth in each subject were estimated with the use of DHS; an average value was considered for the baseline. All the hypersensitive teeth were subjected and re-estimated. Next, and average value was calculated for the final estimation of sensitivity.
These products were used by them till the end of the study. An oral care set included soft toothbrush and toothpaste for general oral care.
The treatment groups received mouthwashes with the following systems; Table 3. Basic formulation of mouthwash to include the system: […]
The primary result expected in the study was the decrease of dental hypersensitivity after the first application of the product. The result of the system application was calculated with a visual analogue scale, which registers sensitivity with a 10 cm line. The line extremums are the pain limits, which the subject can feel from external irritant (0 - no pain; 10 - severe pain). First, dental sensitivity was registered with an ice cube and an applicator heated to 90C. After the first application, sensitivity to external irritant was registered with an ice cube and an applicator heated to 90C.
The tested sample size was 36 subjects. The data was collected and then filtered out from errors and processed with the standard functionality of MS Excel. The charts were made with Microsoft Excel software. Table 5. Results of hypersensitivity assessment study

TRPV1 = TRPV1 (Homo sapiens, UniProt Q8NER1); conditions: clinical trial after third molar extraction; trial terminated; cited from earlier work
TRPC5 = conditions: animal model, cited from earlier work
[1] = pure galangin; cited from earlier work
CYP1A1 = target: T1, CYP1A1 (Homo sapiens, UniProt P04798); conditions: with various proteins, such as CYP1A1; transformation into kaempferol; cited from earlier work
T1 sequence (P04798 1-512): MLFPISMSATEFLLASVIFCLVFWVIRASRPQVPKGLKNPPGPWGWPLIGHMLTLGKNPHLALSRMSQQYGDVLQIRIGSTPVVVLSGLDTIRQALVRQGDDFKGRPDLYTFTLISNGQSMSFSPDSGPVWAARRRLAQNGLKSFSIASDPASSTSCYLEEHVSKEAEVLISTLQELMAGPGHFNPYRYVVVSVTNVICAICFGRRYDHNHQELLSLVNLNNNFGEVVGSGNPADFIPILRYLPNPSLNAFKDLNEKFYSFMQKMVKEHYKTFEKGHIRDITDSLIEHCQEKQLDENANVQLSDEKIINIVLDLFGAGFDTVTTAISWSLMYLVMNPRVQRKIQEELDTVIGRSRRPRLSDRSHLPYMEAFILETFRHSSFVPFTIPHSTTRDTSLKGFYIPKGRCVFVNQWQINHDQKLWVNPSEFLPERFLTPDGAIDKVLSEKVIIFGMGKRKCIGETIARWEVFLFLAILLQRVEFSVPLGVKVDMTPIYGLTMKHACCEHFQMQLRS

[2] = oral administration; due to intensive metabolism; cited from earlier work
TRPC5 receptors = target: T2, TRPC5 receptors (Homo sapiens, UniProt Q9UL62); conditions: compared with galangin; cited from earlier work
T2 sequence (Q9UL62 1-973): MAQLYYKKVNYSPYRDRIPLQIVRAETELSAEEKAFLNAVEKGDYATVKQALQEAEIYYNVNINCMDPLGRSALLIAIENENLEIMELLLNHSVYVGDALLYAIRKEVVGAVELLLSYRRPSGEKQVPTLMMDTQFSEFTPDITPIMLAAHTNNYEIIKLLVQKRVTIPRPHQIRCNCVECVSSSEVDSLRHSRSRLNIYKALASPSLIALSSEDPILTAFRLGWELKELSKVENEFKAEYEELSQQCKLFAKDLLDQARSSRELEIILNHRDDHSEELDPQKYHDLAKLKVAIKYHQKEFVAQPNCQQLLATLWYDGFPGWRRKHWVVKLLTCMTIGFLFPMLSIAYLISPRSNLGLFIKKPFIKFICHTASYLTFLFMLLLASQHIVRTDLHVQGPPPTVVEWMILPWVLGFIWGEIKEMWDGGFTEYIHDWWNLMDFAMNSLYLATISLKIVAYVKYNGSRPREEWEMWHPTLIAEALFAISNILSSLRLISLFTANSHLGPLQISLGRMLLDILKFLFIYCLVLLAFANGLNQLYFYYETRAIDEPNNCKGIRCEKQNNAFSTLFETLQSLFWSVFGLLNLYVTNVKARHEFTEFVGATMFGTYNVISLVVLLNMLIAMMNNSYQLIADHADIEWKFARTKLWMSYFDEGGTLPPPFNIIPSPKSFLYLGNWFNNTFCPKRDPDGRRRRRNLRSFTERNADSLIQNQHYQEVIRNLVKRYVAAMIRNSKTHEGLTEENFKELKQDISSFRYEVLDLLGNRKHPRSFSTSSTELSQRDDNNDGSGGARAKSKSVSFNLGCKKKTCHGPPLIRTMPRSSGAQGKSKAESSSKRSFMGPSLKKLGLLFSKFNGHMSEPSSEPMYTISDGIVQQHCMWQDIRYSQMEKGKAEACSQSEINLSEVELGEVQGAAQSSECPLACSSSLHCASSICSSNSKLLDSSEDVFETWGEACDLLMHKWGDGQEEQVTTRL

TRPV1, sequence (Q8NER1 whole entry): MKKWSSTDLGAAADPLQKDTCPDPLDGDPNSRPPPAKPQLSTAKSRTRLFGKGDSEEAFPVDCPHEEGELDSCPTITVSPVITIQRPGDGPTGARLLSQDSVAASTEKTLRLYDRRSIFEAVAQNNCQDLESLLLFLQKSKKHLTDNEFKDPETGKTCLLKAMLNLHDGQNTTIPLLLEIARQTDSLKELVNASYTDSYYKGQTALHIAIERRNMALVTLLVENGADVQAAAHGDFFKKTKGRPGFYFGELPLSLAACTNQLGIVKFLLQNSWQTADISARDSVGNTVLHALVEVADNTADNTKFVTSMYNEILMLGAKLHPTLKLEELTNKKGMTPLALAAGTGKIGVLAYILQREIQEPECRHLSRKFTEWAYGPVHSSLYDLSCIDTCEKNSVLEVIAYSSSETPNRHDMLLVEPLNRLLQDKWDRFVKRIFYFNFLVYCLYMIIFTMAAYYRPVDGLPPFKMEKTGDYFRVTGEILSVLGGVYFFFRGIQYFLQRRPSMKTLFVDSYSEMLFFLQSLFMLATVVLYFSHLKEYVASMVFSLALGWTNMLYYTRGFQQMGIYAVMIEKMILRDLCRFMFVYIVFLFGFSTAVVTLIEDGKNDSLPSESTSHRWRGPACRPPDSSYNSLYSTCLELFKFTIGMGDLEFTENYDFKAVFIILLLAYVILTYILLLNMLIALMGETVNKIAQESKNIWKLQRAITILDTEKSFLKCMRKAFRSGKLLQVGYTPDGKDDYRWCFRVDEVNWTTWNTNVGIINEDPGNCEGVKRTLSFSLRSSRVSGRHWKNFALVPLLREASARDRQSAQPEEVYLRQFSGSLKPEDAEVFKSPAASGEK

Structure (SMILES): O=[N+]([O-])[O-].[K+] [Potassium nitrate]
- Hot After 1 use Mean (hypersensitive teeth): 6
- Ice After 1 use Mean (hypersensitive teeth): 5,7
- Before Hot Mean (hypersensitive teeth): 6,7
- Before Ice Mean (hypersensitive teeth): 7,6
- Hot After 1 use (hypersensitive teeth; listed as 1): 5 (2×) and 4 and 7 (2×) and 8
- Ice After 1 use (hypersensitive teeth; listed as 1): 5 (2×) and 4 and 7 (2×) and 6
- Before Hot (hypersensitive teeth; listed as 1): 5 (2×) and 6 and 8 (3×)
- Before Ice (hypersensitive teeth; listed as 1): 7 and 8 (3×) and 6 and 9
- Modifications in HS after the product application, Hot After 1 use, % (hypersensitive teeth): 10.4%
- Modifications in HS after the product application, Ice After 1 use, % (hypersensitive teeth): 25%

Structure (SMILES): CC(=O)Nc1nc2c(Oc3cc(-c4ccc(C(F)(F)F)cc4)ncn3)cccc2s1 [AMG 517]
- body temperature (TRPV1): increased body temperature

Structure (SMILES): Nc1nc2ccc(OC(F)(F)F)cc2s1 [ruizole]
- jaw sensitivity (TRPC5; agonist of TRPC5 channel): increased jaw sensitivity

Structure (SMILES): O=c1c(O)c(-c2ccccc2)oc2cc(O)cc(O)c12 [Galangin, galangin]
- solubility in water [1]: practically insoluble in water
- Hot After 1 use Mean (hypersensitive teeth): 4,6
- Ice After 1 use Mean (hypersensitive teeth): 2,5
- Before Hot Mean (hypersensitive teeth): 5,2
- Before Ice Mean (hypersensitive teeth): 5,8
- Hot After 1 use (hypersensitive teeth; listed as 3): 4 and 6 and 3 and 5 (3×)
- Ice After 1 use (hypersensitive teeth; listed as 3): 3 (2×) and 2 (2×) and 4 and 1
- Before Hot (hypersensitive teeth; listed as 3): 3 and 6 (2×) and 4 and 7 and 5
- Before Ice (hypersensitive teeth; listed as 3): 6 (3×) and 5 (2×) and 7
- Modifications in HS after the product application, Hot After 1 use, % (hypersensitive teeth): 11.5%
- Modifications in HS after the product application, Ice After 1 use, % (hypersensitive teeth): 56,9%
- metabolic oxidation (CYP1A1): prone to rapid metabolic oxidation
- bioavailability [2]: extremely low bioavailability

Structure (SMILES): O=c1c(O)c(-c2ccc(O)cc2)oc2cc(O)cc(O)c12 [kaempferol]
- impact on TRPC5 receptors (TRPC5 receptors): either does not affect TRPC5 receptors, or shows a significantly milder impact than that of galangin

Structure (SMILES): CCCCCCCC/C=C\CCCCCCCC(=O)O [Oleic acid, oleic acid]
- Hot After 1 use Mean (hypersensitive teeth): 4,3
- Ice After 1 use Mean (hypersensitive teeth): 5,2
- Before Hot Mean (hypersensitive teeth): 6,8
- Before Ice Mean (hypersensitive teeth): 7,2
- Hot After 1 use (hypersensitive teeth; listed as 5): 3 and 5 and 4 (3×) and 6
- Ice After 1 use (hypersensitive teeth; listed as 5): 8 and 4 (2×) and 6 (2×) and 3
- Before Hot (hypersensitive teeth; listed as 5): 5 and 9 and 6 (2×) and 8 and 7
- Before Ice (hypersensitive teeth; listed as 5): 9 and 8 (2×) and 5 and 7 and 6
- Modifications in HS after the product application, Hot After 1 use, % (hypersensitive teeth): 36.8%
- Modifications in HS after the product application, Ice After 1 use, % (hypersensitive teeth): 27.8%

Structure (SMILES): Cc1cc(N2CCCCC2)nc2ccccc12 [ML204]
- response to cold and pain (TRPC5; TRPC5 blockers): effectively eliminated any response to cold and prevented pain

Structure (SMILES): Nc1ncnc2c1ncn2[C@@H]1O[C@H](CO)[C@@H](O)[C@H]1O [Adenosine, adenosine]
- Hot After 1 use Mean (hypersensitive teeth): 4
- Ice After 1 use Mean (hypersensitive teeth): 6,8
- Before Hot Mean (hypersensitive teeth): 7,3
- Before Ice Mean (hypersensitive teeth): 7
- Hot After 1 use (hypersensitive teeth; listed as 4): 5 and 6 and 4 (2×) and 2 and 3
- Ice After 1 use (hypersensitive teeth; listed as 4): 8 and 9 and 6 (2×) and 5 and 7
- Before Hot (hypersensitive teeth; listed as 4): 8 and 9 (2×) and 7 and 6 and 5
- Before Ice (hypersensitive teeth; listed as 4): 8 (2×) and 7 (2×) and 6 (2×)
- Modifications in HS after the product application, Hot After 1 use, % (hypersensitive teeth): 45.2%
- Modifications in HS after the product application, Ice After 1 use, % (hypersensitive teeth): 2.8%

From patent EP4599817A1, “IMPACT ON ENAMEL AND DENTINE […] THROUGH MEDIATED IMPACT OF ANTAGONISTS ON TRPV1 AND TRCP5 […] IN ORAL CARE PRODUCTS” (SkyLab AG, priority 2024, dated 2025)
